# pIC50: −log10 of the molar value.
# Target: Serine/threonine-protein phosphatase 2A catalytic subunit alpha (Homo sapiens) (UniProt P67775)
# Experiment: Inhibitory activity against protein phosphatase (PP2A) using fluorescein diphosphate as substrate
# Serine/threonine-protein phosphatase 2A catalytic subunit alpha (Homo sapiens), sequence (P67775 whole entry, looked up): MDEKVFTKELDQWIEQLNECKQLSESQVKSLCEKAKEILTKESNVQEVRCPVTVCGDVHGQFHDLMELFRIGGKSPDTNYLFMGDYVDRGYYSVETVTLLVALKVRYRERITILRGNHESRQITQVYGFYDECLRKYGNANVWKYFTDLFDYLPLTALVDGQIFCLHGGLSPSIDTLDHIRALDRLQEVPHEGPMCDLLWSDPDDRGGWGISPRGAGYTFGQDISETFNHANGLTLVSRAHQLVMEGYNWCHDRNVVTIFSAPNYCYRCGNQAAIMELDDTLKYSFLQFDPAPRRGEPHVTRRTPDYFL
row,SMILES,pIC50
1,C=C([C@@H](O)C[C@H](O)[C@@]1(C)CC[C@H](C(C)(C)O)O1)[C@H]1CC[C@H]2O[C@@H]([C@]3(C)CC[C@@H](Br)C(C)(C)O3)CC[C@]2(C)O1,> 5.00
2,CC(C)(O)[C@H]1CC[C@](C)([C@@H](O)CC[C@](O)(CO)C2=CC[C@H]3O[C@@H]([C@]4(C)CC[C@@H](Br)C(C)(C)O4)CC[C@]3(C)O2)O1,> 5.00

# From BindingDB's records for doi:10.1016/s0960-894x(03)00136-7 (2003)
